For 2 molecules, Km and Ki results are on record in paper PMC3548707, “Biocatalytic potential of laccase-like multicopper oxidases from Aspergillus niger” (Microbial Cell Factories, 2012).

In experiment [1] the test system is McoB. Particulars: read-out: ABTS; pH 5.0; 0.125 to 15 mM substrate.
Experiment [2] concerns McoG. Particulars: read-out: ABTS; pH 5.0; 0.125 to 15 mM substrate.
The test system of experiment [3] is T1, McoG.
T1 construct: secreted, homologously expressed in A. niger N593, purified from culture supernatant; theoretical ~65 kDa, ~80 kDa SDS-PAGE, ~99 kDa gel filtration; monomer; blue
As to the kind of experiment: initial oxidation rate at […] nm, Michaelis-Menten fit. As to conditions: pH 5.0; 0.125 to 15 mM substrate; fit with substrate inhibition; read-out: DMPPDA. Type of experiment: biochemical, Aspergillus niger.

In experiment [4] the target is T2, McoB.
T2 construct: secreted, homologously expressed in A. niger N593, purified from culture supernatant; theoretical ~63 kDa, ~88 kDa SDS-PAGE, ~96 kDa gel filtration; monomer; yellow
The experiment is described as above. Particulars: substrate inhibition; second site; pH 5.0. It is filed as biochemical, Aspergillus niger.

For experiment [5], the system named is T2, McoB. Described as above. Type of experiment: biochemical, Aspergillus niger. As to conditions: pH 5.0; 0.125 to 15 mM substrate; fit with substrate inhibition; read-out: DMPPDA.
In another experiment the test system is T3, McoA.
T3 construct: secreted, homologously expressed in A. niger N593, purified from culture supernatant; theoretical ~64 kDa, ~110 kDa SDS-PAGE, ~120 kDa gel filtration; monomer; blue
The experiment is described as above. It is filed as biochemical, Aspergillus niger. As to conditions: pH 5.0; 0.125 to 15 mM substrate; read-out: DMPPDA.

The target in experiment [6] is T1, McoG. Described as above. Type of experiment: biochemical, Aspergillus niger. Particulars: substrate inhibition; second site; pH 5.0.

Where two headings read alike, the source gives them in different places.

`CCn1c(=NN=c2sc3cc(S(=O)(=O)O)ccc3n2CC)sc2cc(S(=O)(=O)O)ccc21` [ABTS]: the Km with McoB [1] worked out at 500 ± 100 µM; with McoG [2], 5600 ± 1000 µM.

`CN(C)c1ccc(N)cc1` [DMPPDA]: the Km in the experiment with McoG [3] turned out to be 1800 ± 300 µM; in the experiment with McoB [5], 400 ± 100 µM; in the experiment with McoA it was 3600 ± 200 µM. Also, the Ki came to 22.4 ± 6.4 mM on McoB [4] and 4.6 ± 0.7 mM on McoG [6].
